Experimental data: US10519154B2, “7-substituted 1-pyridyl-naphthyridine-3-carboxylic acid amides and use thereof” (Bayer Pharma Aktiengesellschaft, priority 2016, dated 2019)

Molecular target: T1, human M2 receptor (Homo sapiens, UniProt P08172)
T1 sequence (P08172 1-466): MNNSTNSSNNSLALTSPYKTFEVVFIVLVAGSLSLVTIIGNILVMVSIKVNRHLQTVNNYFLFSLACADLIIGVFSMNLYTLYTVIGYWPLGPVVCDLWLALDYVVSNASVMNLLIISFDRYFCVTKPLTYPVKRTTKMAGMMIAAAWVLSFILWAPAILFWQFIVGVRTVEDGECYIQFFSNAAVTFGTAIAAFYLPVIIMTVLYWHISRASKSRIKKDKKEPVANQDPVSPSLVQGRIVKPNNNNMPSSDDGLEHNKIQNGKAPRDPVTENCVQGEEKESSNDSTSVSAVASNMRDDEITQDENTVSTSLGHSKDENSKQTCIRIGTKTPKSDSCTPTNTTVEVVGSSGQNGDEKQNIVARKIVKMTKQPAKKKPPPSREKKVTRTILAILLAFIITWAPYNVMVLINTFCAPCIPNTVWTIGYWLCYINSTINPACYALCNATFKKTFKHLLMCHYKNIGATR
Experiment: Functional M2-GIRK1/4 activation test: allosteric potency (EC50) and efficiency
Details: for EC50: Receptor activity EC50, CHO-DUKX-M2-GIRK cells, acetylcholine at EC20, in some cases mean of two or more determinations; for Emax: read-out: Efficiency, boosting of the acetylcholine effect at EC20 acetylcholine concentration; for Emax / Efficiency: CHO-DUKX-M2-GIRK cells; for Efficiency: boosting of the acetylcholine effect at EC20 acetylcholine concentration

| Structure (SMILES) | EC50 | Emax | Efficiency |
| --- | --- | --- | --- |
| CC[C@H](NC(=O)c1cn(-c2ncc(F)cc2F)c2nc(N3CC(O)C(C)C3=O)ccc2c1=O)C(F)(F)F (single isomer, unassigned) [Example 111] | 100 nM | – | 99.00% |
| CC(NC(=O)c1cn(-c2ncc(F)cc2F)c2nc(N3CCNC3=O)ccc2c1=O)C(F)(F)C(F)(F)F (single isomer, unassigned) [Example 163, 1-(3,5-Difluoropyridin-2-yl)-4-oxo-7-(2-oxoimidazolidin-1-yl)-N-[3,3,4,4,4-pentafluorobutan-2-yl]-1,4-dihydro-1,8-naphthyridine-3-carboxamide] | 120 nM | – | 100.00% |
| O=C(NC(c1c(F)cccc1F)C(F)(F)F)c1cn(-c2ncc(F)cc2F)c2nc(N3C[C@@H](O)CC3=O)ccc2c1=O (stereo partly drawn) [Example 9, N-[1-(2,6-Difluorophenyl)-2,2,2-trifluoroethyl]-1-(3,5-difluoropyridin-2-yl)-7-[(4S)-4-hydroxy-2-oxopyrrolidin-1-yl]-4-oxo-1,4-dihydro-1,8-naphthyridine-3-carboxamide] | 20 nM | 94.5% | – |
| C[C@H](NC(=O)c1cn(-c2ncc(F)cc2F)c2nc(N3C[C@@H](O)CC3=O)ccc2c1=O)C(F)(F)F [Example 3, 1-(3,5-Difluoropyridin-2-yl)-7-[(4S)-4-hydroxy-2-oxopyrrolidin-1-yl]-4-oxo-N-[(2S)-1,1,1-trifluoropropan-2-yl]-1,4-dihydro-1,8-naphthyridine-3-carboxamide] | 240 nM | 97.8% | – |
| CC1(C)C(=O)N(c2ccc3c(=O)c(C(=O)N[C@@H](C4CC4)C(F)(F)F)cn(-c4ncc(F)cc4F)c3n2)C2(CC2)C1O (stereo partly drawn) [Example 33, N-[(1S)-1-Cyclopropyl-2,2,2-trifluoroethyl]-1-(3,5-difluoropyridin-2-yl)-7-[7-hydroxy-6,6-dimethyl-5-oxo-4-azaspiro[2.4]hept-4-yl]-4-oxo-1,4-dihydro-1,8-naphthyridine-3-carboxamide] | 505 nM | 83% | – |
| O=C(NC1(C(F)(F)F)CCC1)c1cn(-c2ncc(F)cc2F)c2nc(N3CCNC3=O)ccc2c1=O [Example 150, 1-(3,5-Difluoropyridin-2-yl)-4-oxo-7-(2-oxoimidazolidin-1-yl)-N-[1-(trifluoromethyl)cyclobutyl]-1,4-dihydro-1,8-naphthyridine-3-carboxamide] | 375 nM | 88% | – |
| CC[C@H](NC(=O)c1cn(-c2ncc(F)cc2F)c2nc(N(C)C)ccc2c1=O)C(F)(F)F [Example 130, 1-(3,5-Difluoropyridin-2-yl)-7-(dimethylamino)-4-oxo-N-[(2S)-1,1,1-trifluorobutan-2-yl]-1,4-dihydro-1,8-naphthyridine-3-carboxamide] | 53 nM | 93% | – |
| CC1C(=O)N(c2ccc3c(=O)c(C(=O)N[C@@H](C4CC4)C(F)(F)F)cn(-c4ncc(F)cc4F)c3n2)CC1O (single isomer, unassigned) [Example 107] | 97 nM | – | 98.00% |

The remaining molecules from weak to strong by EC50, led by results:

| EC50 | Emax | Efficiency | Structure (SMILES) |
| --- | --- | --- | --- |
| 2850 nM | 84.5% | – | O=C(NC1CCC1)c1cn(-c2ncc(F)cc2F)c2nc(N3C[C@@H](O)[C@H](O)C3)ccc2c1=O [Example 168, N-Cyclobutyl-1-(3,5-difluoropyridin-2-yl)-7-[(3R,4R)-3,4-dihydroxypyrrolidin-1-yl]-4-oxo-1,4-dihydro-1,8-naphthyridine-3-carboxamide] |
| 880 nM | 82% | – | CC[C@@H](NC(=O)c1cn(-c2ncc(F)cc2F)c2nc(N3CCCCC3=O)ccc2c1=O)C(F)(F)F [Example 34, 1-(3,5-Difluoropyridin-2-yl)-4-oxo-7-(2-oxopiperidin-1-yl)-N-[(2R)-1,1,1-trifluorobutan-2-yl]-1,4-dihydro-1,8-naphthyridine-3-carboxamide] |
| 360 nM | 100% | – | O=C(NC1(C(F)(F)F)CCC1)c1cn(-c2ncc(F)cc2F)c2nc(N3C[C@@H](O)[C@H](O)C3)ccc2c1=O [Example 155, 1-(3,5-Difluoropyridin-2-yl)-7-[(3R,4R)-3,4-dihydroxypyrrolidin-1-yl]-4-oxo-N-[1-(trifluoromethyl)cyclobutyl]-1,4-dihydro-1,8-naphthyridine-3-carboxamide] |
| 305 nM | 100% | – | CC(CF)(CF)NC(=O)c1cn(-c2ncc(F)cc2F)c2nc(N3C[C@@H](O)[C@H](O)C3)ccc2c1=O [Example 103, N-(1,3-Difluoro-2-methylpropan-2-yl)-1-(3,5-difluoropyridin-2-yl)-7-[(3R,4R)-3,4-dihydroxypyrrolidin-1-yl]-4-oxo-1,4-dihydro-1,8-naphthyridine-3-carboxamide] |
| 250 nM | 98.5% | – | CC1C(=O)N(c2ccc3c(=O)c(C(=O)N[C@@H](C4CC4)C(F)(F)F)cn(-c4ncc(F)cc4F)c3n2)CC1O (mixture of isomers) [Example 104, N-[(1S)-1-Cyclopropyl-2,2,2-trifluoroethyl]-1-(3,5-difluoropyridin-2-yl)-7-[4-hydroxy-3-methyl-2-oxopyrrolidin-1-yl]-4-oxo-1,4-dihydro-1,8-naphthyridine-3-carboxamide] |
| 220 nM | 92% | – | O=C(N[C@H](C1CC1)C(F)(F)F)c1cn(-c2ncc(F)cc2F)c2nc(N3CCCN(CCO)C3=O)ccc2c1=O [Example 122, N-[(1R)-1-Cyclopropyl-2,2,2-trifluoroethyl]-1-(3,5-difluoropyridin-2-yl)-7-[3-(2-hydroxyethyl)-2-oxotetrahydropyrimidin-1(2H)-yl]-4-oxo-1,4-dihydro-1,8-naphthyridine-3-carboxamide] |
| 120 nM | 97.5% | – | CC(C)C(NC(=O)c1cn(-c2ncc(F)cc2F)c2nc(N3CCNC3=O)ccc2c1=O)C(F)(F)F (racemic) [Example 169, 1-(3,5-Difluoropyridin-2-yl)-4-oxo-7-(2-oxoimidazolidin-1-yl)-N-[1,1,1-trifluoro-3-methylbutan-2-yl]-1,4-dihydro-1,8-naphthyridine-3-carboxamide] |
| 118 nM | 100% | – | CC(C)(NC(=O)c1cn(-c2ncc(F)cc2F)c2nc(N3CCC[C@@H]3CO)ccc2c1=O)C(F)(F)C(F)(F)F [Example 188, 1-(3,5-Difluoropyridin-2-yl)-7-[(2R)-2-(hydroxymethyl)pyrrolidin-1-yl]-4-oxo-N-(3,3,4,4,4-pentafluoro-2-methylbutan-2-yl)-1,4-dihydro-1,8-naphthyridine-3-carboxamide] |
| 51 nM | – | 99.00% | O=C(N[C@H](C1CC1)C(F)(F)F)c1cn(-c2ncc(F)cc2F)c2nc(N3CC4CC4(O)C3)ccc2c1=O (single isomer, unassigned) [Example 39] |
| 48 nM | 90.5% | – | O=C(N[C@H](C1CC1)C(F)(F)F)c1cn(-c2ncc(F)cc2Cl)c2nc(N3CC4CC4(O)C3)ccc2c1=O (mixture of isomers) [Example 52, 1-(3-Chloro-5-fluoropyridin-2-yl)-N-[(1R)-1-cyclopropyl-2,2,2-trifluoroethyl]-7-[1-hydroxy-3-azabicyclo[3.1.0]hex-3-yl]-4-oxo-1,4-dihydro-1,8-naphthyridine-3-carboxamide] |
| 15 nM | 100% | – | CC(C)C[C@@H](NC(=O)c1cn(-c2ncc(F)cc2F)c2nc(N3C[C@@H](O)[C@H](O)C3)ccc2c1=O)C(F)(F)F [Example 81, 1-(3,5-Difluoropyridin-2-yl)-7-[(3R,4R)-3,4-dihydroxypyrrolidin-1-yl]-4-oxo-N-[(2R)-1,1,1-trifluoro-4-methylpentan-2-yl]-1,4-dihydro-1,8-naphthyridine-3-carboxamide] |
